{"source": "paper PMC7069920", "about": "“Schizandrin A exhibits potent anticancer activity in colorectal cancer cells by inhibiting heat shock factor 1” (Bioscience Reports, 2020)", "key": {"HSF1 [1]": {"tested_on": "HSF1", "conditions": "read-out: IC50, heat shock-induced HSF1 reporter activity; cited from earlier work"}, "RKO cells [2]": {"tested_on": "RKO cells", "assay": "MTS cell viability assay, RKO", "type": "cell-based", "conditions": "Homo sapiens, 72 h, read-out: IC50, antiproliferative effect", "protocol": "(§1) The Cell Titer 96 Aqueous Non-Radioactive Cell Proliferation Assay Kit (Promega, U.S.A.) was utilized to measure cell viability. RKO, DLD-1 cells (5 × 10^3 cells/well) and SW620, SW480 (6 × 10^3 cells/well) were seeded in 96-well plates overnight. This was followed by the removal of the culture medium and the exposure of all cells to different concentrations of chemical treatment for 72 h. The absorbance value of each well was determined by a microplate reader at 490 nm. Each experiment was repeated for three times."}, "DLD-1 cells": {"tested_on": "DLD-1 cells", "assay": "MTS cell viability assay, DLD-1", "type": "cell-based", "conditions": "Homo sapiens, 72 h, read-out: IC50, antiproliferative effect", "protocol": "as §1"}, "SW620 cells": {"tested_on": "SW620 cells", "assay": "MTS cell viability assay, SW620", "type": "cell-based", "conditions": "Homo sapiens, SW-620, 72 h, read-out: IC50 (50% inhibition), antiproliferative effect", "protocol": "as §1"}, "SW480 cells": {"tested_on": "SW480 cells", "assay": "MTS cell viability assay, SW480", "type": "cell-based", "conditions": "Homo sapiens, 72 h, read-out: IC50 (50% inhibition), antiproliferative effect", "protocol": "as §1"}, "CCD 841 CoN cells": {"tested_on": "CCD 841 CoN cells", "assay": "MTS cell viability assay, normal colon epithelial cells", "type": "cell-based, human", "conditions": "72 h"}, "RKO cells [3]": {"tested_on": "RKO cells", "assay": "Cell cycle analysis by flow cytometry (PI)", "type": "cell-based, human", "protocol": "Cells (3 × 10^5 cells/well) were seeded in six-well plates and allowed to adhere overnight. The next day, the cells were treated with different compounds as indicated for 24 h. The cells were then trypsinized, washed, and fixed in 75% ice-cold ethanol at 4°C overnight. After centrifugation, the pellets were washed with cold PBS, suspended in 500 μl PBS with […] PI and incubated in the dark at 4°C for 30 min. Then cell suspension was tested using an FACS Calibur instrument (Becton Dickinson FACSCalibor, BD Biosciences, Franklin Lakes, NJ, U.S.A.)."}, "HSF1 [4]": {"tested_on": "HSF1", "assay": "HSE luciferase reporter assay (heat shock-induced HSF1 reporter activity)", "type": "cell-based", "conditions": "Homo sapiens, RKO cells, 30 min pretreatment, 43°C 1 h, 5 h recovery", "protocol": "The double-strand DNA containing four copies of the palindromic HSE (5′-[…]-3′) was synthesized and inserted into the multiple cloning site (MCS) of pGL3-basic vector (Promega, U.S.A.), which was named as p(HSE)4-basic vector. Then, the Dual-Glo® Luciferase Assay System (Promega, U.S.A.) was used to measure the activity of the reporter. Briefly, RKO cells (3 × 10^5 cells/well) were seeded in six-well plates. After being cultured overnight, cells were co-transfected with 2 μg of p(HSE)4-basic vector and 0.2 μg of pRL-TK using X-treme GENE HP DNA Transfection Reagent (Roche, U.S.A.) according to the manufacturer’s protocol. The Renilla luciferase gene was transfected as an internal control vector. Twenty-four hours after transfection, cells were trypsinized and seeded in 12-well plates at a density of 8 × 10^4 cells per well. The next day, cells were incubated with Sch A at different concentrations for 30 min, exposed to heat shock at 43°C for 60 min, and then incubated further at 37°C for 5 h. Firefly and Renilla luciferase activities were measured using a dual-light reporter gene assay kit (Promega) with a Synergy 2 BioTek plate reader (BioTek, U.S.A.)."}, "RKO and SW620 cells": {"tested_on": "RKO and SW620 cells", "assay": "Clonogenic (colony-forming) assay", "type": "cell-based, human", "conditions": "75 and 150 μM for 24 h, colonies stained on 14th day, vs negative control", "protocol": "RKO cells were seeded at a density of 800 cells per well in six-well cell culture plate overnight. Then Sch A was mixed into the culture medium and added at different concentrations. After 24 h, the culture medium was replaced with fresh culture medium, and was allowed to grow for an additional 14 ays. Following this, the medium was removed from the colonies, which were then washed twice with PBS, fixed with methanol for 15 min, stained with Crystal Violet for 15 min, and finally washed with running water for 5 min. Colonies containing more than 50 cells were counted, and then photographed for visualization.\nFurthermore, colony-forming assays were performed to assess the long-term inhibitory effects of Sch A treatment. After 24 h of treatment with Sch A (75 and 150 μM), the cell culture was replaced with fresh medium every 3 days. On the 14th day, cell colonies were stained with 0.1% Crystal Violet and photographed."}, "[5]": {"tested_on": "HSP70, HSP27 and HSP90 mRNA", "assay": "qRT-PCR of HSF1 target genes after heat shock", "type": "cell-based, human", "conditions": "RKO, 50-150 μM, heat shock 43°C 1 h, recovery 37°C 0.5 h", "protocol": "Total RNA was extracted with TRIzol reagent (Invitrogen) following the manufacturer’s protocol. RNA concentrations were quantified by NanoDrop 2000 (Nanodrop, U.S.A.). Two micrograms RNA was reverse transcribed with High-Capacity cDNA Reverse Transcription Kit (Applied Biosystems, U.S.A.). Quantitative real-time PCR was performed to determine the mRNA expression level using SYBR Green Master Mix Kit and Light Cycler 480 II system (Roche, Shanghai, China).\nRelative quantities of HSP70, HSP90 and HSP27 mRNA were normalized against ACTB mRNA."}, "Hsp70 and Hsp27": {"tested_on": "Hsp70 and Hsp27", "assay": "Western blot of HSF1 downstream proteins", "type": "cell-based, human", "conditions": "RKO, 50-150 μM, heat shock or 24 h at normal temperature", "protocol": "(§2) After 24 h of treatment as indicated, the cells were washed once with PBS. The total proteins were extracted with RIPA buffer supplemented with protease inhibitors (Roche, U.S.A.) and quantified with BSA standard methodology. Equal amounts of proteins were separated by SDS/PAGE and transferred to a PVDF membrane. After blocking with 5% non-fat dry milk in TBST for 1.5 h, the membrane was incubated with a specific primary antibody diluted 1:1000 overnight at 4°C, and the secondary antibody was then conjugated with HRP (1:5000, Santa Cruz, CA) at room temperature for 2 h. The immunoreactive bands were visualized with enhanced chemiluminescence liquid (Millipore, Billerica, MA, U.S.A.) in Amersham Imager 600 system (GE Healthcare Life Sciences, Shanghai, China)."}, "[6]": {"tested_on": "p-Rb (S807/811), Cyclin D1, Cdk4, Cdk6", "assay": "Western blot of cell cycle-related proteins", "type": "cell-based, human", "conditions": "RKO, 50-150 μM, 24 h", "protocol": "as §2"}, "[7]": {"tested_on": "Cleaved-PARP, Cleaved-caspase-3, Bcl-2", "assay": "Western blot of apoptosis-related proteins", "type": "cell-based, human", "conditions": "RKO, 50-150 μM, 24 h", "protocol": "Flow cytometer analysis and Western blotting were used to detect cell apoptosis. For flow cytometer analysis of apoptosis, cells were treated […] for 24 h, washed twice with PBS, and re-suspended in 100 μl of 1 × binding buffer. Five microliters of FITC Annexin V and propidium iodide (PI) (556547, BD Biosciences, U.S.A.) were added to the cell suspension and then incubated at room temperature for 15 min. After dilution with 400 μl binding buffer, the samples were analyzed using an ACS Calibur flow cytometer (BD). For apoptosis using Western blotting, cleaved caspase 3, cleavage of PARP, Bcl-2, and BCl-xL were analyzed.\nas §2"}, "[8]": {"conditions": "statement in discussion, no experiment and reference not given; cited from earlier work"}, "[9]": {"target": "T1, human recombinant HSF1 full-length protein (Homo sapiens, UniProt Q00613)", "T1 sequence (Q00613 1-529)": "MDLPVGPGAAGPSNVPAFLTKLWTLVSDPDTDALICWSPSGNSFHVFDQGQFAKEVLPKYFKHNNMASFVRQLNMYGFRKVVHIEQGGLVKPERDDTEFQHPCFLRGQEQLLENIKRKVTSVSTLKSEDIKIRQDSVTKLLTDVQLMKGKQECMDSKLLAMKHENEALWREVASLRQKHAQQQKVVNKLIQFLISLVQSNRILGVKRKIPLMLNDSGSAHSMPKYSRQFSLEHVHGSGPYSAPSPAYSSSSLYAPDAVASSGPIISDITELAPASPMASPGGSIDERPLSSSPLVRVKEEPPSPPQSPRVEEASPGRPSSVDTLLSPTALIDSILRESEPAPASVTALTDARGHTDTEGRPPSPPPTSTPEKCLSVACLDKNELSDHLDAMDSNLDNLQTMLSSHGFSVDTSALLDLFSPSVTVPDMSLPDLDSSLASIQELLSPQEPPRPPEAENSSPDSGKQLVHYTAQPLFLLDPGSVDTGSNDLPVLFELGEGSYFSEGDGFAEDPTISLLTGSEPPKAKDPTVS", "assay": "SPR direct binding to HSF1"}}}
{"smiles": "CNc1ccc([N+](=O)[O-])c(Nc2ccc3[nH]ncc3c2)n1", "note": "[KRIBB11]", "values": [{"measurement": "IC50", "setting": "HSF1 [1]", "value": 1.2, "unit": "µM"}]}
{"smiles": "COc1cc2c(c(OC)c1OC)-c1c(cc(OC)c(OC)c1OC)C[C@H](C)[C@H](C)C2", "note": "[Sch A, Schizandrin A]", "values": [{"measurement": "IC50", "setting": "RKO cells [2]", "value": 68.7, "unit": "µM"}, {"measurement": "IC50", "setting": "DLD-1 cells", "value": "> 150", "unit": "µM"}, {"measurement": "IC50", "setting": "SW620 cells", "value": 85.7, "unit": "µM"}, {"measurement": "IC50", "setting": "SW480 cells", "value": 87.6, "unit": "µM"}, {"measurement": "effect on cell viability", "setting": "CCD 841 CoN cells; CCD 841 CoN cells, up to 150 μM", "value": "little effect on the cell viability"}, {"measurement": "IC50", "setting": "CCD 841 CoN cells; Homo sapiens, CCD 841 CoN normal colon epithelial cells, MTS, read-out: IC50, antiproliferative effect", "value": "> 150", "unit": "µM"}, {"measurement": "Dip G2", "setting": "RKO cells [3]; 50 μM, 24 h (DMSO 15.92 %)", "value": 14.49, "unit": "%"}, {"measurement": "Dip S", "setting": "RKO cells [3]; 50 μM, 24 h (DMSO 38.03 %)", "value": 30.80, "unit": "%"}, {"measurement": "Dip G1", "setting": "RKO cells [3]; 50 μM, 24 h (DMSO 46.05 %)", "value": 54.71, "unit": "%"}, {"measurement": "Dip G1", "setting": "RKO cells [3]; 75 μM, 24 h", "value": 62.16, "unit": "%"}, {"measurement": "Dip G2", "setting": "RKO cells [3]; 75 μM, 24 h", "value": 10.56, "unit": "%"}, {"measurement": "Dip S", "setting": "RKO cells [3]; 75 μM, 24 h", "value": 27.28, "unit": "%"}, {"measurement": "Dip G1", "setting": "RKO cells [3]; 100 μM, 24 h", "value": 72.26, "unit": "%"}, {"measurement": "Dip G2", "setting": "RKO cells [3]; 100 μM, 24 h", "value": 7.82, "unit": "%"}, {"measurement": "Dip S", "setting": "RKO cells [3]; 100 μM, 24 h", "value": 19.93, "unit": "%"}, {"measurement": "Dip G1", "setting": "RKO cells [3]; 150 μM, 24 h", "value": 82.94, "unit": "%"}, {"measurement": "Dip G2", "setting": "RKO cells [3]; 150 μM, 24 h", "value": 8.53, "unit": "%"}, {"measurement": "Dip S", "setting": "RKO cells [3]; 150 μM, 24 h", "value": 8.53, "unit": "%"}, {"measurement": "inhibition at 100 µM", "setting": "HSF1 [4]", "value": "~50", "unit": "%"}, {"measurement": "effect on clone formation", "setting": "RKO and SW620 cells", "value": "stronger inhibitory effect on cancer cell growth in a dose-dependent manner"}, {"measurement": "transcription of HSF1 target genes (HSP70, HSP27, HSP90 mRNA)", "setting": "[5]", "value": "effectively blocked the transcription of HSF1 target genes"}, {"measurement": "HSF1-regulated downstream signaling induced by heat shock and basal expression of Hsp 70 and Hsp 27", "setting": "Hsp70 and Hsp27", "value": "effectively down-regulated"}, {"measurement": "expression of cell cycle-related proteins (p-Rb, Cyclin D1, Cdk4, Cdk6)", "setting": "[6]", "value": "reducing the expression of cell cycle-related proteins"}, {"measurement": "expression of anti-apoptotic protein Bcl-2", "setting": "[7]", "value": "decreased"}, {"measurement": "expression of pro-apoptotic molecules (Cleaved-PARP and Cleaved-caspase-3)", "setting": "[7]", "value": "significantly elevated"}, {"measurement": "water solubility", "setting": "[8]", "value": "low water solubility"}, {"measurement": "Kd", "setting": "[9]", "value": 106, "unit": "µM"}, {"measurement": "kon", "setting": "[9]; pH 7.4, read-out: Ka (association constant, SPR)", "value": 26900, "unit": "M⁻¹ s⁻¹"}]}
